From patent US12673946B2, “Pyrimidin-4(3H)-one derivatives as TRPV4 antagonists” (RaQualia Pharma Inc., priority 2020, dated 2026) come the findings set out here.

The assay concerns the target T1, human TRPV4 (Homo sapiens, UniProt Q9HBA0).
T1 construct: host or cells: tetracycline-inducible Flp-In T-REx 293 cells
Kind of assay: Hypotonicity-induced Ca2+ influx (Fluo-4, FDSS). The assay is classed as cell-based. As for the experimental part:
Hypotonicity-Induced Ca^2+ Influx
TRPV4 channel activation/opening results in an influx of Ca^2+ (Liedtke, W. et al., 2000 (NPL 1)). The resulting changes in intracellular calcium are monitored using a Ca^2+ sensitive fluorescent dye Fluo-4 (Invitrogen). Dye loaded cells are treated with the test compounds for 5 minutes prior to the addition of a hypotonic solution and the inhibition of the hypotonicity-induced activation is recorded.
Forty microL of tetracycline-inducible Flp-In T-REx 293 cells (Invitrogen) stably expressing human TRPV4 are seeded onto the poly-D-lysine coated 384-well plate (Corning) at a density of 10,000 cells per well. The following day, TRPV4 expression is induced by adding 0.5 microg/mL tetracycline for 20-24 hours. On the day of the experiment, the media is removed and replaced with 40 microL of dye loading buffer [1 microM Fluo-4 AM (Invitrogen), 0.01% Pluronic F-127, and 20 mM HEPES in Hanks' balanced salt solutions (HBSS; Invitrogen)] and then the cells are incubated for 60 minutes at 25° C. Dye is then removed and replaced with 20 microL of assay buffer (20 mM HEPES in HBSS). Five minutes prior to the fluorescence measurement, 10 microL of test compound is added to the cells. Using the FDSS instrument (Hamamatsu Photonics), 30 microL of hypotonic solution (90 mM D-mannitol and 1.26 mM CaCl2 in ultrapure water) is added 30 seconds after the start of measurement. The calcium flux signal is recorded for a total of 4.5 minutes.

Setting [1] is: Flp-In T-REx 293 cells expressing human TRPV4, examples listed under heading 'Human IC50<50 nM'.
Where [2] appears, read: Flp-In T-REx 293 cells stably expressing human TRPV4, compounds listed by potency bin (<10 nM Tables 96-1/96-2, <3 nM Table 97).

A value given as a limit tells only on which side of the number the result lay.

T1 sequence (Q9HBA0 whole entry): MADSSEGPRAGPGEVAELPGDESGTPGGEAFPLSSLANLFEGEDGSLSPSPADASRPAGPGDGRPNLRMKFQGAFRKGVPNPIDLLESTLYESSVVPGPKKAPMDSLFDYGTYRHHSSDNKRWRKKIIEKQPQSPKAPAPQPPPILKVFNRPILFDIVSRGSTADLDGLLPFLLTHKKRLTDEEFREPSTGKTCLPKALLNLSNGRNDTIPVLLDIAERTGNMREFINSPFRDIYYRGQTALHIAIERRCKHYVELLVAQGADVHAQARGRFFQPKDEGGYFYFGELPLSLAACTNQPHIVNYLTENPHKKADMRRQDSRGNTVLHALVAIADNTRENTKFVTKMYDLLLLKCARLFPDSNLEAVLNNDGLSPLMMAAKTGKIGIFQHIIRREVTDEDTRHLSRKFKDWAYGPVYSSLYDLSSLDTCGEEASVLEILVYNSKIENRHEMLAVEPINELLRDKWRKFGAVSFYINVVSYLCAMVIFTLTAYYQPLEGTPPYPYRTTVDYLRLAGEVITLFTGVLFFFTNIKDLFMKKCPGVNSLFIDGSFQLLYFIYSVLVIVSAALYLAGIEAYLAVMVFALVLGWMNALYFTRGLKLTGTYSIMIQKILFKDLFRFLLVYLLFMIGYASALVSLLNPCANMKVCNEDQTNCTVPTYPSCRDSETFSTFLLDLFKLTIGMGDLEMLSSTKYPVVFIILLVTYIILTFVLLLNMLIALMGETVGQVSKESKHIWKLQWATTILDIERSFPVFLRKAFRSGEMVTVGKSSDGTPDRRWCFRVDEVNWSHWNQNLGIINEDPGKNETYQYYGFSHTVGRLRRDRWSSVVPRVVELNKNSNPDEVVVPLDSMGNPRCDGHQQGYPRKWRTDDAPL

Broadly, the IC50 is the concentration that gives 50% inhibition. Low readings indicate higher potency, high ones lower potency. For `O=C(Cc1cccc(C(F)(F)F)c1F)N1CCCc2nc(C3(c4ccccc4)CC3)[nH]c(=O)c2C1` [17-11], the half-inhibitory concentration (IC50) runs as follows: under setting [1], below 50 nM; under setting [2], below 10 nM.
`O=C([C@H](O)c1cccc(C(F)(F)F)c1)N1CCCc2nc(C3(c4cccc(Cl)c4)CC3)[nH]c(=O)c2C1` [17-12]: the IC50 is below 50 nM under setting [1] and below 10 nM under setting [2].
The like results for `O=C(C(O)c1cccc(OCc2ccccc2)c1)N1CCCc2nc(C3(c4cccc(Cl)c4)CC3)[nH]c(=O)c2C1` (stereo not drawn) [17-13] were, in that order, below 50 nM and below 10 nM.
The like results for `O=C(C(O)c1cccc(-c2cccc(C(F)(F)F)c2)c1)N1CCCc2nc(C3(c4cccc(F)c4)CC3)[nH]c(=O)c2C1` (stereo not drawn) [17-14] were, in that order, below 50 nM and below 10 nM.
Consider `O=C(C(O)c1cccc(-c2cccc(OC(F)(F)F)c2)c1)N1CCCc2nc(C3(c4cccc(F)c4)CC3)[nH]c(=O)c2C1` (stereo not drawn) [17-15], for which the concentration for half-maximal inhibition (IC50) by setting is: under setting [1], below 50 nM; under setting [2], below 10 nM.
The like results for `O=C(C(O)c1cccc(-c2cccc(C(F)(F)F)c2)c1)N1CCCc2nc(C3(c4cccc(Cl)c4)CC3)[nH]c(=O)c2C1` (stereo not drawn) [17-16] were, in that order, below 50 nM and below 10 nM.
With `O=C(C(O)c1cccc(-c2ccc(Cl)cc2)c1)N1CCCc2nc(C3(c4cccc(Cl)c4)CC3)[nH]c(=O)c2C1` (stereo not drawn) [17-17], the 50% inhibitory concentration (IC50) is, setting by setting: under setting [1], below 50 nM; under setting [2], below 10 nM.
Turning to `CC(C)(C)c1cccc(C(O)C(=O)N2CCCc3nc(C4(c5cccc(Cl)c5)CC4)[nH]c(=O)c3C2)c1` (stereo not drawn) [17-18], the IC50 is below 50 nM under setting [1] and below 10 nM under setting [2].
For the molecule `O=C(C(O)c1cccc(-c2cnc3ccccc3c2)c1)N1CCCc2nc(C3(c4cccc(Cl)c4)CC3)[nH]c(=O)c2C1` (stereo not drawn) [17-19], the IC50 is below 50 nM under setting [1] and below 10 nM under setting [2].
`O=C(C(O)c1cccc(C(F)(F)F)c1F)N1CCCc2nc(C3(c4ccccc4)CC3)[nH]c(=O)c2C1` (stereo not drawn) [17-20]: the IC50 by setting is: under setting [1], below 50 nM; under setting [2], below 10 nM.
Consider `CC(C)(C)c1cccc(C(O)C(=O)N2CCCc3nc(C4(c5cccc(F)c5)CC4)[nH]c(=O)c3C2)c1` (stereo not drawn) [17-21], for which the half-inhibitory concentration (IC50) reads like this: under setting [1], below 50 nM; under setting [2], below 10 nM.
Turning to `O=C(C(O)c1ccccc1Oc1ccccc1)N1CCCc2nc(C3(c4cccc(Cl)c4)CC3)[nH]c(=O)c2C1` (stereo not drawn) [17-22], the IC50 is, setting by setting: under setting [1], below 50 nM; under setting [2], below 10 nM.
Take `O=C(C(O)c1cccc(-c2cccc(OC(F)(F)F)c2)c1)N1CCCc2nc(C3(c4cccc(Cl)c4)CC3)[nH]c(=O)c2C1` (stereo not drawn) [17-23]: the half-inhibitory concentration (IC50) by setting is: under setting [1], below 50 nM; under setting [2], below 10 nM.
Taken in the same sequence, the figures for `O=C(C(O)c1cccc(C2CC2)c1)N1CCCc2nc(C3(c4cccc(Cl)c4)CC3)[nH]c(=O)c2C1` (stereo not drawn) [17-24] were below 50 nM and below 10 nM.
Taken in the same sequence, the figures for `O=C([C@H](O)c1cccc(C(F)(F)F)c1)N1CCCc2nc(C3(c4cccc(C5CCCCC5)c4)CC3)[nH]c(=O)c2C1` [17-25] were below 50 nM and below 10 nM.
The like results for `O=C(Cc1cccc(SC(F)(F)F)c1)N1CCCc2nc(C3(c4ccccc4)CC3)[nH]c(=O)c2C1` [17-26] were, in that order, below 50 nM and below 10 nM.
`O=C(C(O)c1cccc(S(F)(F)(F)(F)F)c1)N1CCCc2nc(C3(c4cccc(Cl)c4)CC3)[nH]c(=O)c2C1` (stereo not drawn) [17-27]: the 50% inhibitory concentration (IC50) reads like this: under setting [1], below 50 nM; under setting [2], below 10 nM.
Regarding `O=C(C(O)c1cccc(SC(F)(F)F)c1)N1CCCc2nc(C3(c4cccc(Cl)c4)CC3)[nH]c(=O)c2C1` (stereo not drawn) [17-28], the IC50 by setting is: under setting [1], below 50 nM; under setting [2], below 10 nM.
The like results for `O=C([C@H](O)c1cccc(Cl)c1)N1CCCc2nc(C3(c4cccc(Cl)c4)CC3)[nH]c(=O)c2C1` [17-29] were, in that order, below 50 nM and below 10 nM.
Turning to `O=C(C(O)c1cccc(SC(F)(F)F)c1)N1CCCc2nc(C3(c4cccc(F)c4)CC3)[nH]c(=O)c2C1` (stereo not drawn) [17-30], the IC50 reads like this: under setting [1], below 50 nM; under setting [2], below 10 nM.
Taken in the same sequence, the figures for `O=C(Cc1cccc(S(F)(F)(F)(F)F)c1)N1CCCc2nc(C3(c4ccccc4)CC3)[nH]c(=O)c2C1` [17-31] were below 50 nM and below 10 nM.
With `O=C(C(O)c1cccc(S(F)(F)(F)(F)F)c1)N1CCCc2nc(C3(c4cccc(F)c4)CC3)[nH]c(=O)c2C1` (stereo not drawn) [17-32], the IC50 is, setting by setting: under setting [1], below 50 nM; under setting [2], below 10 nM.
Consider `O=C(C(O)c1cccc(Oc2ccccc2)c1)N1CCCc2nc(C3(c4cccc(Cl)c4)CC3)[nH]c(=O)c2C1` (stereo not drawn) [17-33], for which the IC50 by setting is: under setting [1], below 50 nM; under setting [2], below 10 nM.
Turning to `O=C(C(O)c1cccc(-c2ccc(Cl)cc2)c1)N1CCCc2nc(C3(c4cccc(F)c4)CC3)[nH]c(=O)c2C1` (stereo not drawn) [17-34], the 50% inhibitory concentration (IC50) by setting is: under setting [1], below 50 nM; under setting [2], below 10 nM.
The like results for `O=C([C@H](O)c1cccc(F)c1F)N1CCCc2nc(C3(c4cccc(Cl)c4)CC3)[nH]c(=O)c2C1` [17-35] were, in that order, below 50 nM and below 10 nM.
Consider `O=C([C@H](O)c1cccc(C(F)(F)F)c1)N1CCCc2nc(C3(c4cccc(F)c4)CC3)[nH]c(=O)c2C1` [17-36], for which the half-inhibitory concentration (IC50) reads like this: under setting [1], below 50 nM; under setting [2], below 10 nM.
As for `O=C([C@H](O)c1cccc(C(F)(F)F)c1)N1CCCc2nc(C3(c4ccccc4)CC3)[nH]c(=O)c2C1` [17-37], the half-inhibitory concentration (IC50) is below 50 nM under setting [1] and below 10 nM under setting [2].
Molecule `O=C(C(O)c1cccc(SC(F)(F)F)c1)N1CCCc2nc(C3(c4ccccc4)CC3)[nH]c(=O)c2C1` (stereo not drawn) [17-38] had an IC50 under setting [1] below 50 nM and a half-maximal inhibitory concentration (IC50) under setting [2] below 10 nM.
Taken in the same sequence, the figures for `CC(C)c1cccc(C2(c3nc4c(c(=O)[nH]3)CN(C(=O)C(O)c3cccc(S(F)(F)(F)(F)F)c3)CCC4)CC2)c1` (stereo not drawn) [17-39] were below 50 nM and below 10 nM.
As for `O=C(C(O)c1cccc(Oc2cccc(C(F)(F)F)c2)c1)N1CCCc2nc(C3(c4cccc(Cl)c4)CC3)[nH]c(=O)c2C1` (stereo not drawn) [17-40], the IC50 under setting [1] was below 50 nM and the IC50 under setting [2] was below 10 nM.
Taken in the same sequence, the figures for `O=C(C(O)c1cccc(S(F)(F)(F)(F)F)c1)N1CCCc2nc(C3(c4ccccc4)CC3)[nH]c(=O)c2C1` (stereo not drawn) [17-41] were below 50 nM and below 10 nM.
On to `O=C(C(O)c1cccc(Cl)c1F)N1CCCc2nc(C3(c4ccccc4)CC3)[nH]c(=O)c2C1` (stereo not drawn) [17-42], for which the IC50 under setting [1] is below 50 nM.
Turning to `O=C(C(O)c1ccccc1C(F)(F)F)N1CCCc2nc(C3(c4cccc(Cl)c4)CC3)[nH]c(=O)c2C1` (stereo not drawn) [17-43], the IC50 under setting [1] was below 50 nM.
The same measure, in the same setting: then `CC(C)c1cccc(C2(c3nc4c(c(=O)[nH]3)CN(C(=O)C(O)c3cccc(SC(F)(F)F)c3)CCC4)CC2)c1` (stereo not drawn) [17-44], with below 50 nM; and `CC(C)c1cccc(C2(c3nc4c(c(=O)[nH]3)CN(C(=O)C(O)c3cccc(-c5cccc(C(F)(F)F)c5)c3)CCC4)CC2)c1` (stereo not drawn) [17-45], with below 50 nM.
The same measure, in the same setting: the same measure for `CC(C(=O)N1CCCc2nc(C3(c4ccccc4)CC3)[nH]c(=O)c2C1)c1cccc(C(F)(F)F)c1` (stereo not drawn) [17-46]: below 50 nM.
As for `CC(C)(C)c1cccc(C(O)C(=O)N2CCCc3nc(C4(c5ccccc5)CC4)[nH]c(=O)c3C2)c1` (stereo not drawn) [17-47], under setting [1], the 50% inhibitory concentration (IC50) is below 50 nM.
For `O=C(C(O)c1cccc(-c2cccc(F)c2)c1)N1CCCc2nc(C3(c4cccc(F)c4)CC3)[nH]c(=O)c2C1` (stereo not drawn) [17-48], under setting [1], the 50% inhibitory concentration (IC50) was below 50 nM.
Same read-out and setting: then `CC(C)c1cccc(C2(c3nc4c(c(=O)[nH]3)CN(C(=O)C(O)c3cccc(-c5cccc(OC(F)(F)F)c5)c3)CCC4)CC2)c1` (stereo not drawn) [17-49], with below 50 nM; and `O=C(C(O)c1cccc(OCC(F)(F)F)c1)N1CCCc2nc(C3(c4cccc(Cl)c4)CC3)[nH]c(=O)c2C1` (stereo not drawn) [17-50], with below 50 nM; and `O=C(Cc1cccc(C(F)(F)F)c1)N1CCCc2nc(C3(c4ccccc4)CC3)[nH]c(=O)c2C1` [17-51], with below 50 nM.
On the same count and under the same terms, the same measure for `O=C(C(O)c1cccc(Oc2ccccc2)c1)N1CCCc2nc(C3(c4cccc(F)c4)CC3)[nH]c(=O)c2C1` (stereo not drawn) [17-52]: below 50 nM.
On the same count and under the same terms, the same measure for `O=C(C(O)c1cccc(C2CC2)c1)N1CCCc2nc(C3(c4cccc(F)c4)CC3)[nH]c(=O)c2C1` (stereo not drawn) [17-53]: below 50 nM.
Under setting [1], `COc1cccc(C2(c3nc4c(c(=O)[nH]3)CN(C(=O)[C@H](O)c3cccc(C(F)(F)F)c3)CCC4)CC2)c1` [17-54] had an IC50 below 50 nM.
Same read-out and setting: the same measure for `O=C(C(O)c1cccc(Br)c1)N1CCCc2nc(C3(c4ccccc4)CC3)[nH]c(=O)c2C1` (stereo not drawn) [17-55]: below 50 nM; for `Cc1cccc(C(O)C(=O)N2CCCc3nc(C4(c5ccccc5)CC4)[nH]c(=O)c3C2)c1F` (stereo not drawn) [17-56]: below 50 nM.
The same measure, in the same setting: then `O=C([C@H](O)c1cccc(Cl)c1)N1CCCc2nc(C3(c4cccc(F)c4)CC3)[nH]c(=O)c2C1` [17-57], with below 50 nM; and `O=C(C(O)c1cccc(C2CC2)c1)N1CCCc2nc(C3(c4ccccc4)CC3)[nH]c(=O)c2C1` (stereo not drawn) [17-58], with below 50 nM.
`CC(C)c1cccc(C(O)C(=O)N2CCCc3nc(C4(c5ccccc5)CC4)[nH]c(=O)c3C2)c1` (stereo not drawn) [17-59] displayed an IC50 under setting [1] below 50 nM.
The same measure, in the same setting: the same measure for `O=C([C@H](O)c1cccc(F)c1F)N1CCCc2nc(C3(c4cccc(F)c4)CC3)[nH]c(=O)c2C1` [17-60]: below 50 nM.
